In patent publication US20250002472A1, “PYRIDYL-CONTAINING COMPOUND” (CHIA TAI TIANQING PHARMACEUTICAL GROUP CO., LTD., priority 2021, published 2025):

Key:
Mouse pharmacokinetics = type: in vivo; settings: ICR, plasma, po, 3 mg/kg, mice, intragastric 3 mpk vs intravenous 1 mpk, read-out: Absolute bioavailability F (%)
Method: ICR mice weighing 18-22 g were randomized into groups of 9 mice per group after 3-5 days of acclimatization and then administered intragastrically at a dose of 3 mg/kg.
Plasma samples to be tested were prepared by taking blood from the orbit at time points of 15 min, 30 min, 1 h, 2 h, 4 h, 6 h, 8 h, 10 h, and 24 h.
20 μL of each plasma sample to be tested and a standard curve sample were taken, and an acetonitrile solution containing an internal standard was added. A supernatant was obtained by protein precipitation, diluted, and then assayed by LC/MS/MS.
Pharmacokinetic parameters were fitted using a non-compartmental model.

[1] = In vitro liver microsomal stability, mouse; type: in vitro ADME; settings: mouse liver microsomes 0.5 mg/mL, NADPH, 37° C.
Method: (§1) Liver microsome incubation samples were prepared by mixing a PBS buffer (pH=7.4), a liver microsome solution (0.5 mg/mL), a test compound, and an NADPH+MgCl2 solution, and incubated at 37° C. and 300 rpm for 1 h. Zero-hour samples were prepared by mixing a PBS buffer (pH=7.4), a liver microsome solution (0.5 mg/mL), and a test compound. An acetonitrile solution containing an internal standard was added to the samples, and supernatants were prepared by protein precipitation, diluted, and then assayed by LC/MS/MS.

[2] = In vitro liver microsomal stability, human; type: in vitro ADME; settings: human liver microsomes 0.5 mg/mL, NADPH, 37° C.
Method: as §1

[3] = tested on: OCI-LY10 human diffuse large B-cell lymphoma NOD-SCID mouse subcutaneous xenograft tumor; assay: Efficacy evaluation in OCI-LY10 NOD-SCID mouse subcutaneous xenograft tumor model; type: in vivo, NOD-SCID mice
Text: Efficacy evaluation in OCI-LY10 human diffuse large B-cell lymphoma NOD-SCID mouse subcutaneous xenograft tumor model
(1) SPF female NOD-SCID mice (source: Jiangsu Huachuang Xinnuo Pharmaceutical Technology Co., Ltd.) were inoculated subcutaneously at the right side armpit with OCI-LY10 human diffuse large B-cell lymphoma cells at 1×10^7 cells/mouse. When the mean tumor volume reached about 200 mm^3, the animals were divided into a control group (vehicle control group) and treatment groups (compound groups).
The administration dose included 1 mg/kg, 2 mg/kg, and 4 mg/kg, and the administration frequency was once daily. The day of grouping was defined as day 0, and intragastric administration was started on day 0 for 21 consecutive days.
Alternatively, the administration dose was 4 mg/kg, and the administration frequency was 5 times per week. The day of grouping was defined as day 0, and intragastric administration was started on day 0 five times per week for two consecutive weeks.
The tumor volume was measured once every 3 days, and meanwhile, the mice were weighed and the data were recorded; the general behavior of the mice was observed and recorded every day. After the experiment was completed, the tumors were removed, weighed, and photographed.
The detection index and the calculation formula are as follows:
Tumor volume TV (mm^3)=½×(a×b^2), wherein a is the long diameter of the tumor, and b is the short diameter of the tumor; • Relative tumor volume RTV=TVt/TV0, wherein TV0 is the tumor volume on day 0, and TVt is the tumor volume at each measurement; • Relative tumor proliferation rate T/C (%)=(TRTV/CRTV)×100%, wherein TRTV is RTV of the treatment group, and CRTV is RTV of the vehicle control group; • Tumor growth inhibition rate TGI (%)=(1−TW/TW0)×100%; wherein TW is the tumor weight of the treatment group, and TW0 is the tumor weight of the vehicle control group; • Weight change rate WCR (%)=(Wtt−Wt0)/Wt0×100%, wherein Wt0 is the body weight of the mouse on day 0, and Wtt is the body weight of the mouse at each measurement.

Structure (SMILES)	Mouse liver microsome Residuals at 60 min (%) [1]	Human liver microsome Residuals at 60 min (%) [2]	further results
NC(=O)/C(=C/n1cnc(-c2cc(C(F)(F)F)nc(C(F)(F)F)c2)n1)c1cnc(NCC(F)F)nc1 [Compound 2]			bioavailability (Mouse pharmacokinetics): 104%
CC(F)(F)CNc1ncc(/C(=C\n2cnc(-c3cc(C(F)(F)F)nc(C(F)(F)F)c3)n2)C(N)=O)cn1 [Compound 3]			bioavailability (Mouse pharmacokinetics): 114%
NC(=O)/C(=C/n1cnc(-c2cc(C(F)(F)F)nc(C(F)(F)F)c2)n1)c1cnc(NCC(F)(F)F)nc1 [Compound 4]	93.27%	100.33%	
C[C@@H](Nc1ncc(/C(=C\n2cnc(-c3cc(C(F)(F)F)nc(C(F)(F)F)c3)n2)C(N)=O)cn1)C(F)(F)F [Compound 5]	99.03%	97.64%	
NC(=O)/C(=C/n1cnc(-c2cc(C(F)(F)F)nc(C(F)(F)F)c2)n1)c1cncc(F)c1 [Compound 8]	98.98%	101.7%	
N#Cc1cncc(/C(=C\n2cnc(-c3cc(C(F)(F)F)nc(C(F)(F)F)c3)n2)C(N)=O)c1 [Compound 10]	93.99%	95.75%	
NC(=O)/C(=C/n1cnc(-c2cc(C(F)(F)F)nc(C(F)(F)F)c2)n1)c1cnc2ccccc2c1 [Compound 11]			Weight change rate (%) (mean ± SD) ([3]; Table 5, 4 mg/kg intragastric, Day 18 of assay): 0.6 ± 8.1%
NC(=O)/C(=C/n1cnc(-c2cc(C3CC3)nc(C(F)(F)F)c2)n1)c1cncnc1 [Compound 13]	91.15%	93.23%	
NC(=O)/C(=C/n1cnc(-c2cc(C3CC3)nc(C(F)(F)F)c2)n1)c1cnc(NCC(F)F)nc1 [Compound 14]	83.14%	80.48%	
CC(F)(F)CNc1ncc(/C(=C\n2cnc(-c3cc(C4CC4)nc(C(F)(F)F)c3)n2)C(N)=O)cn1 [Compound 15]			bioavailability (Mouse pharmacokinetics): 94.8%
NC(=O)/C(=C/n1cnc(-c2cc(C3CC3)nc(C(F)(F)F)c2)n1)c1cnc(NCC(F)(F)F)nc1 [Compound 16]	90.60%	88.75%	
C[C@@H](Nc1ncc(/C(=C\n2cnc(-c3cc(C4CC4)nc(C(F)(F)F)c3)n2)C(N)=O)cn1)C(F)(F)F [Compound 17]	95.11%	93.92%	
Cc1ccc(/C(=C\n2cnc(-c3cc(C(F)(F)F)nc(C(F)(F)F)c3)n2)C(N)=O)cn1 [Compound 21]			Weight change rate (%) (mean ± SD) ([3]; Table 4, 2 mg/kg intragastric, Day 21 of assay): −2.0 ± 6.5%; bioavailability (Mouse pharmacokinetics): 97.3%
NC(=O)/C(=C/n1cnc(-c2cc(C(F)(F)F)nc(C(F)(F)F)c2)n1)c1cnc2cccnc2c1 [Compound 25]			Weight change rate (%) (mean ± SD) ([3]; Table 4, 4 mg/kg intragastric, Day 21 of assay): 1.7 ± 5.3%
NC(=O)/C(=C/n1cnc(-c2cc(C3CC3)nc(C(F)(F)F)c2)n1)c1cnc2ccccc2c1 [Compound 26]	90.27%	96.64%	
NC(=O)/C(=C/n1cnc(-c2cc(C3CC3)nc(C(F)(F)F)c2)n1)c1cncc(F)c1 [Compound 27]	94.24%	102.54%	
N#Cc1cncc(/C(=C\n2cnc(-c3cc(C4CC4)nc(C(F)(F)F)c3)n2)C(N)=O)c1 [Compound 30]	89.94%	98.75%	
NC(=O)/C(=C/n1cnc(-c2cc(C3CC3)nc(C(F)(F)F)c2)n1)c1cccnc1F [Compound 32]	95.08%	100.32%	
NC(=O)/C(=C/n1cnc(-c2cc(C3CC3)nc(C(F)(F)F)c2)n1)c1cnc2cccnc2c1 [Compound 33]	98.21%	104.79%	
COc1ccc(/C(=C\n2cnc(-c3cc(C4CC4)nc(C(F)(F)F)c3)n2)C(N)=O)cn1 [Compound 34]	87.79%	101.21%	
Cc1ccc(/C(=C\n2cnc(-c3cc(C4CC4)nc(C(F)(F)F)c3)n2)C(N)=O)cn1 [Compound 38]			bioavailability (Mouse pharmacokinetics): 112%
NC(=O)/C(=C/n1cnc(-c2cc(C3CC3)nc(C(F)(F)F)c2)n1)c1ccc(F)nc1 [Compound 39]	89.18%	106.91%	
